The values below come from publication PMC4917822, “pH-Selective Cytotoxicity of pHLIP-Antimicrobial Peptide Conjugates” (Scientific Reports, 2016).

Bridges are numbered along the chain shown (N, C = ends). Roman numbers before positions name the chains, in order. Where no end group is shown, it is not given here.

The test system of data set [1] is MDA-MB-231 breast cancer cells. The experiment in a line: Anti-proliferation assay (MTT) after 2 h treatment at pH 7.4 or 5.0. Type of data set: cell-based, Human. The conditions noted are these: for enhancement of cytotoxicity of free peptide at low pH: pH 5.0, 10 μM; for enhancement of cytotoxicity of free peptide at low pH / cytotoxicity of free peptide at physiological pH: n = 9; for cytotoxicity of free peptide at physiological pH: pH 7.4, 72 h recovery. As to the method:
We have previously shown that this treatment protocol and pHLIP alone have no effect on MDA-MB-231 cell viability.
Figure 2 Inhibition of cell growth. MDA-MB-231 cells treated with 4-amino acid pHLIP-KLAKS conjugates. Black columns represent cells treated at pH 7.4 and cells treated at low pH are shown in grey. For each condition, 3,000 cells/well (96-well plate) were seeded, allowed to adhere overnight, treated for 2 hours, washed once with media and cultured for 72 hour in complete medium at physiologic pH. Cell viability was assessed with the MTT assay. All measurements were normalized to the media control (0 μM, pH 7.4), as 100% cell viability. Results are shown as mean ± SEM (n = 9–12).
For each condition, 3,000 cells/well (96-well plate) were seeded, allowed to adhere overnight, treated for 2 hours, washed once with media and cultured for 72 hour in complete medium at physiologic pH. Cell viability was assessed with the MTT assay. All measurements were normalized to the media control (0 μM, pH 7.4), as 100% cell viability. Results are shown as mean ± SEM (n = 9–12). Data at pH 5.0 (A and B) were fitted with a sigmoidal dose-response using Prism 6 for Macintosh (GraphPad, Inc).
Figure 5 Effect of free peptides on cell viability. MDA-MB-231 cells were treated with 10 μM of either (KLAKLAK)2 (A) or KLAKLAK (B) at pH 7.4 (black circles) or pH 5.0 (grey squares) for 2 hours, washed once with media and cultured for 72 hours in complete medium at physiologic pH. Cell viability was assessed with the MTT assay, and all measurements were normalized to the media control (0 μM, pH 7.4), as 100% cell viability. Results are shown as mean ± SEM (n = 9).
Cells were seeded in 96-well plates at a density of 3,000 cells/well and incubated overnight. […] Treatment solutions were collected and their pH values measured using a micro-combination pH probe (Microelectrodes, Inc.). […] Cell viability was determined after 72 hours using the colorimetric MTT assay. Briefly, 10 μL of a 5 mg/mL MTT stock solution was added to the treated cells and incubated for 2 hours at 37 °C. The resulting formazan crystals were solubilized in 200 μL DMSO and the absorbance measured at 580 nm using an Infinite 200 PRO microplate reader (Tecan). Cell viability was calculated against control cells treated with media at physiologic pH. When needed, data were fitted with a sigmoidal dose-response using Prism 5 for Macintosh (GraphPad, Inc). […]
Figure S1. Effect of Free Peptides on Cell Viability and Plasma Membrane Integrity. For each condition, 3,000 cells/well (96-well plate) were seeded, incubated until confluent (~72 hours) and treated for 2 hours with 10 µM of free pHLIP(WT) or free tetrapeptides at pH 7.4 (black bars) and a low pH (grey bars). (A) Cell viability assay. After the 2-hour treatment, cells were washed once with media and cultured for 72 hour in complete medium at physiologic pH. Cell viability was assessed with the MTT assay. All measurements were normalized to the media control (0 µM, pH 7.4), as 100% cell viability. Results are shown as mean ± SEM (n=9-12). (B) After the 2-hour treatment, cells were detached and counted based on trypan blue uptake with an hemacytometer: % of intact cells corresponds to the number of cells not showing any dye uptake over the total number of cells. Results are shown as mean ± SD (n=3).

Data set [2] concerns MDA-MB-231 cells. The experiment in a line: Trypan Blue plasma membrane integrity assay. Conditions: 10 μM, 2 h at pH 7.4 or pH 5.0, % intact cells counted with hemacytometer, mean ± SD, n = 3. Type of data set: cell-based, Human. An excerpt: (§1) First, we assessed the effect of the conjugates on the integrity of cell membranes based on the uptake of Trypan Blue, which can be taken up by cells only if their plasma membrane is disrupted. […] We also measured the release of the intracellular enzyme lactate dehydrogenase (LDH) after peptide treatment, as another method to evaluate plasma membrane damage. […] Importantly, it was previously shown that neither pHLIP alone nor low pH treatments disrupts membranes, including that of MDA-MB-231 cells[20][23] (Figure S1).
(§2) Figure 4 Effect of free peptides and pHLIP-conjugates on Plasma Membrane Integrity and Lactate Dehydrogenase (LDH) Release. (A) The integrity of the plasma membrane is assessed by the uptake of trypan blue dye. […] Cells were detached and counted based on trypan blue uptake with an hemacytometer: % of intact cells corresponds to the number of cells not showing any dye uptake over the total number of cells. […] Cell media supernatant was monitored for the presence of LDH following treatment. […]
For the Trypan Blue plasma membrane integrity assays cells were seeded in 96-well plates at a density of 3,000 cells/well and incubated until confluent (~72 hours). […] After treatment, the media was removed, cells were detached using trypsin and counted based on trypan blue uptake using an hemacytometer. […] Percent LDH release was calculated against control cells treated with media at physiologic pH. […]

Data set [3] relates to MDA-MB-231 breast cancer cells. The conditions noted are these: cited from earlier work.
The test system of data set [4] is MDA-MB-231 cells. As to the kind of experiment: Annexin V-Alexa Fluor 488 / MitoTracker Red dual staining by flow cytometry. Type of data set: cell-based, Human. Conditions: for PS externalization (Annexin V) and loss of mitochondrial membrane potential (MitoTracker Red) at low pH / Annexin V / MitoTracker Red effects 6 hours post-treatment: 10 μM; for PS externalization (Annexin V) and loss of mitochondrial membrane potential (MitoTracker Red) at low pH: 2 h at pH 5.0, 24 h recovery, n = 3; for Annexin V / MitoTracker Red effects 6 hours post-treatment: 2 h at pH 7.4 or 5.0, 6 h recovery, n = 3 (Figure S3). A general note: In flow cytometry, cells or beads pass a laser one at a time.

Data set [5] concerns MDA-MB-231 cells. The experiment in a line: Lactate dehydrogenase (LDH) release assay. The conditions noted are these: 10 μM free peptide, 2 h at pH 5.0. The data set is classed as cell-based, Human.
Description: as §1, §2
For the Trypan Blue plasma membrane integrity assays cells were seeded in 96-well plates at a density of 3,000 cells/well and incubated until confluent (~72 hours). […] After treatment, the media was removed, cells were detached using trypsin and counted based on trypan blue uptake using an hemacytometer. […] Percent LDH release was calculated against control cells treated with media at physiologic pH.

The next data set concerns caspases 3 and 7. The conditions noted are these: MDA-MB-231; 10 μM; 2 h at pH 7.4 or 5.0; monitored at 24, 48 and 72 hours; fluorescence 485/530 nm; n = 3 (Figure S5). As to the method:
Before treatment, construct aliquots were solubilized in an appropriate volume of DMEM without FBS (pH 7.4) so that upon pH adjustment 10 μM is obtained. […]

Take “I: GGEQNPIYWARYADWLFTTPLLLLDLALLVDADEGTCG-NH2 / II: CKAAK-NH2 (disulfide I:37-II:1) [pHLIP-KAAK]”: the “overall cell proliferation inhibition relative to the other 4-amino acid conjugates” value in data set [1] (low pH, 1.25–10 μM, 72 h recovery) is recorded as “lower than pHLIP-KGGK”.
“GGEQNPIYWARYADWLFTTPLLLLDLALLVDADEGTCG (H-GGEQNPIYWARYADWLFTTPLLLLDLALLVDADEGTCG-NH2) [pHLIP(WT)]”: the “plasma membrane integrity (trypan blue uptake)” value in the data set with MDA-MB-231 cells [2] is recorded as “neither pHLIP(WT) nor the tetrapeptides has any significant harmful effects”. Besides, the “effect of free peptide on cell viability (Figure S1A)” value in data set [1] (10 μM free peptide, pH 7.4 and low pH, 72 h recovery, n = 9-12) was “neither pHLIP(WT) nor the tetrapeptides has any significant harmful effects”. Moreover, the “effect of pHLIP alone on MDA-MB-231 cell viability” value in data set [3] is “no effect”.
For the molecule “CKLAKLAKKLAKLAK [(KLAKLAK)2, cationic antimicrobial peptide cargo, synthesized with N-terminal Cys, amidated C-terminus]”, the “enhancement of cytotoxicity of free peptide at low pH” value in data set [1] (72 h recovery) is on record as “greatest enhancement”. For the same molecule, the “cytotoxicity of free peptide at physiological pH” value in data set [1] was “not significantly toxic”. Further, in the data set with MDA-MB-231 cells [4], the “PS externalization (Annexin V) and loss of mitochondrial membrane potential (MitoTracker Red) at low pH” value was “largest effect”; the “Annexin V / MitoTracker Red effects 6 hours post-treatment” value is given as “no evidence of these effects”. The “LDH release 24 hours post-treatment at low pH” value in the data set with MDA-MB-231 cells [5] is reported as “some LDH release”.
For `CN[C@@H]1C[C@H]2O[C@@](C)([C@@H]1OC)n1c3ccccc3c3c4c(c5c6ccccc6n2c5c31)C(=O)NC4` [staurosporine, reference compound], the “Annexin V / MitoTracker Red population shift (positive control)” value in the data set with MDA-MB-231 cells [4] (1 μM for 6 or 24 hours, n = 3 (Figure S4)) is given as “clear shift in cell population”.
Turning to CKLAKLAK, the “enhancement of cytotoxicity of free peptide at low pH” value in data set [1] (72 h recovery) was “only a modest one”. Moreover, in data set [1], the “cytotoxicity of free peptide at physiological pH” value was “not significantly toxic”. Besides, in the data set with MDA-MB-231 cells [4], the “PS externalization (Annexin V) and loss of mitochondrial membrane potential (MitoTracker Red) at low pH” value is “only a modest one”; the “Annexin V / MitoTracker Red effects 6 hours post-treatment” value is reported as “no evidence of these effects”. Besides, the “LDH release 24 hours post-treatment at low pH” value in the data set with MDA-MB-231 cells [5] is “some LDH release”. Further, the “caspase 3/7 activation” value in the data set with caspases 3 and 7 is “neither treatments with pHLIP-KLAKLAK or KLAKLAK induces any significant caspase activation”.
